Usually solubility stands for how much of the substance goes into solution per volume.

These results are taken from US20240279228A1, “NOVEL SALTS AND CRYSTALS” (INTRA-CELLULAR THERAPIES, INC., priority 2021, published 2024).

Counter-ions that a name gives are not always drawn. Like-named read-outs stand apart in the source and are kept apart here.

Data set [1] in a line: Colour and chemical stability of the solid salt in air. The data set is classed as physicochemical. The settings on record: for Colorization: tosylate salt product of process experiment.
Data set [2] in a line: Solubility of Compound A free base in solvents. The data set is classed as physicochemical.
A short description of data set [3]: Hygroscopicity of Compound A free base. In kind it is physicochemical.
Data set [4] in a line: Decomposition of salt crystals by NMR. The data set is classed as physicochemical. The following applies: crystals from salt screening. As for the experimental part: Further experiments are performed using some of the successful acid/solvent/method conditions from Example 1, with variations in the solvent volume and/or material concentrations and/or changes to the molar ratio of Compound A free base to acid (1:1.2, 1:1.5 or 1:2). Some experiments are further repeated at a 500 mg scale for confirmation of the results, including additional analysis, including 1H-NMR, DSC/TGA, and/or FTIR.

Data set [5] is described as follows: Solubility of the salts in water. The following applies: salt. In kind it is physicochemical.
For data set [6] the following is noted: solid tosylate salt of WO2020/131895, on standing; cited from earlier work.

Regarding `O=C1CN2c3c(cccc3[C@@H]3CN(CCCOc4ccc(F)cc4)CC[C@@H]32)N1` [Compound 3-2], the Colorization result in data set [1] is “Yes”.

`O=C1CN2c3c(cccc3[C@@H]3CN(CCCOc4ccc(F)cc4)CC[C@@H]32)N1` [Compound 5-1]: the Colorization result in data set [1] is “No”.

Take `O=C1CN2c3c(cccc3[C@@H]3CN(CCCOc4ccc(F)cc4)CC[C@@H]32)N1` [Compound 5-2]: the Colorization result in data set [1] is on record as “No”.

As for `O=C1CN2c3c(cccc3[C@@H]3CN(CCCOc4ccc(F)cc4)CC[C@@H]32)N1` [Compound 5-3], the Colorization result in data set [1] is recorded as “No”.

Regarding `O=C1CN2c3c(cccc3[C@@H]3CN(CCCOc4ccc(F)cc4)CC[C@@H]32)N1` [Compound 5-4], the Colorization result in data set [1] is “No”.

With `O=C1CN2c3c(cccc3[C@@H]3CN(CCCOc4ccc(F)cc4)CC[C@@H]32)N1` [Compound 5-5], the Colorization entry in data set [1] is on record as “Slight”.

For `O=C1CN2c3c(cccc3[C@@H]3CN(CCCOc4ccc(F)cc4)CC[C@@H]32)N1` [Compound A, (6bR,10aS)-8-(3-(4-fluorophenoxy)propyl)-6b,7,8,9,10,10a-hexahydro-1H-pyrido[3′,4′:4,5]pyrrolo[1,2,3-de]quinoxalin-2(3H)-one], in data set [2] (free base form), the “Solubility (general)” value is listed as “very poor solubility”. In addition, in data set [2] (free base, DMSO), the “Solubility in DMSO” value is recorded as “freely soluble”. The Solubility in anisole entry in data set [2] (free base, anisole) is “sparingly soluble”. Besides, in data set [2] (free base, ethyl salicylate), the “Solubility in ethyl salicylate” value is “sparingly soluble”. In data set [2] (free base, most organic solvents and water), the “Solubility in most organic solvents and water” value was “less than sparingly soluble”. Further, the solubility in data set [2] (free base, water, read-out: Solubility in water) was < 11 mg/mL; in data set [2] (organic solvent or mixture, free base, 2-butanol, read-out: Solubility in 2-butanol), < 11 mg/mL; in data set [2] (organic solvent or mixture, free base, cyclohexane, read-out: Solubility in cyclohexane), < 11 mg/mL; in data set [2] (organic solvent or mixture, free base, ethyl acetate, read-out: Solubility in ethyl acetate), < 11 mg/mL; in data set [2] (organic solvent or mixture, free base, heptane, read-out: Solubility in heptane), < 11 mg/mL; in data set [2] (organic solvent or mixture, free base, methanol, read-out: Solubility in methanol), < 11 mg/mL. In data set [3], the Hygroscopicity entry is “slightly hygroscopic”.

On to `O=C1CN2c3c(cccc3[C@@H]3CN(CCCOc4ccc(F)cc4)CC[C@@H]32)N1` [Example 3], for which the “Colour change of the powder” value in data set [1] (at room temperature) was “slowly turns purple”.

Regarding `O=C1CN2c3c(cccc3[C@@H]3CN(CCCOc4ccc(F)cc4)CC[C@@H]32)N1` [hydrochloride crystals], the “Decomposition by NMR” value in data set [4] is “show decomposition”.

Turning to `O=C1CN2c3c(cccc3[C@@H]3CN(CCCOc4ccc(F)cc4)CC[C@@H]32)N1` [oxalate salt], the Solubility in water in data set [5] was in the range of 0.2 to 0.3 mg/mL.

In the case of `O=C1CN2c3c(cccc3[C@@H]3CN(CCCOc4ccc(F)cc4)CC[C@@H]32)N1` [tosylate salt], the Solubility in water in data set [5] is 1.2 to 1.7 mg/mL. The Discoloration on standing entry in data set [6] was “discolors on standing”.
